Reference: publication PMC12006963, “Application of Deuterium in an M1 Positive Allosteric Modulator Back-Up Program: The Discovery of VU6045422” (ACS Chemical Neuroscience, 2025)

Experiments:
[1] = design: method as in PMID 39660766; conditions: rat hepatic microsomes; cited from earlier work
Phorbol Ester = experiment: Eurofins radioligand binding; design: species or system Mouse
[2] = molecular target: bile salt export pump (BSEP) (Homo sapiens, UniProt O95342); experiment: Bile salt export pump inhibition; type: in vitro ADME
Glucocorticoid = Glucocorticoid (Homo sapiens, UniProt P04150); experiment: Eurofins radioligand binding
Endothelin ETB = Endothelin ETB (Homo sapiens, UniProt P24530); experiment: Eurofins radioligand binding
Chain of Endothelin ETB (P24530 27-442): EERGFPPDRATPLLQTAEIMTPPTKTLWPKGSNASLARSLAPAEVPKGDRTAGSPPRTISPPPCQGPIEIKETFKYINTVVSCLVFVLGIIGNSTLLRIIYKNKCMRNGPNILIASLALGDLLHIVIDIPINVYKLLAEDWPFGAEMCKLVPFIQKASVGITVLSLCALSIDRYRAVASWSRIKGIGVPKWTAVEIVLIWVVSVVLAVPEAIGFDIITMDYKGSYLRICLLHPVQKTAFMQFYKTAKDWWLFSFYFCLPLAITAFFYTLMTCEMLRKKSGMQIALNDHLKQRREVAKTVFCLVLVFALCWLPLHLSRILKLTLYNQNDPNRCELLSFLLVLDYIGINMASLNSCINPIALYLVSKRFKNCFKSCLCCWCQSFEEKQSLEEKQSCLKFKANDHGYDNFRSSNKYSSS

[3] = molecular target: Leukotriene, Cysteinyl CysLT1 (Homo sapiens, UniProt Q9Y271); experiment: Eurofins radioligand binding
Chain of Leukotriene, Cysteinyl CysLT1 (Q9Y271 whole entry): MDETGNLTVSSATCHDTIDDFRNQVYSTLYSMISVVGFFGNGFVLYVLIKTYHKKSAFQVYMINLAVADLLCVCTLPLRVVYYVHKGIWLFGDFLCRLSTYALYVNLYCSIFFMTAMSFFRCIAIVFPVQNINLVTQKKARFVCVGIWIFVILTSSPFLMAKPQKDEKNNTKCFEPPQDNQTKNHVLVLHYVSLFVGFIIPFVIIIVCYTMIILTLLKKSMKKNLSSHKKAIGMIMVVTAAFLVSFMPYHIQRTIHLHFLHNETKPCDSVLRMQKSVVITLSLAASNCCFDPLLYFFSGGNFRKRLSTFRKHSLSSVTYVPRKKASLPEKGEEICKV

[4] = tested on: 68 GPCRs, ion channels, and transporters; experiment: Eurofins lead profiling screen, whole panel; type: binding; conditions: 10 μM; significant means >50%
Dopamine D3 = Dopamine D3 (Homo sapiens, UniProt P35462); experiment: Eurofins radioligand binding
Serotonin (5-HT3) = Serotonin (5-HT3) (Homo sapiens, UniProt P46098); experiment: Eurofins radioligand binding
Chain of Serotonin (5-HT3) (P46098 24-478): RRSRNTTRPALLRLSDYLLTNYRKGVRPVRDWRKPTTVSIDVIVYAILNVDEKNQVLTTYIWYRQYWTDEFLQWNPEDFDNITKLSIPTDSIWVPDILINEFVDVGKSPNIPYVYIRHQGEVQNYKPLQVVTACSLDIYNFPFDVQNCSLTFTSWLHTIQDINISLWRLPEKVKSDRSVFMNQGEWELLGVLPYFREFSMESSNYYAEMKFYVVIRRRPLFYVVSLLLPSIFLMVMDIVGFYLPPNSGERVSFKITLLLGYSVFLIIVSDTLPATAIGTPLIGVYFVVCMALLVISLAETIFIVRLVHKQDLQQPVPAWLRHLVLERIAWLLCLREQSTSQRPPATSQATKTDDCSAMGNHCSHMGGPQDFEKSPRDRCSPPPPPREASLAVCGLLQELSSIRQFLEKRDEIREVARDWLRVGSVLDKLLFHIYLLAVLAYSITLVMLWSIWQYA

Muscarinic M1 = Muscarinic M1 (Homo sapiens, UniProt P11229); experiment: Eurofins radioligand binding
Muscarinic M2 = Muscarinic M2 (Homo sapiens, UniProt P08172); experiment: Eurofins radioligand binding
Chain of Muscarinic M2 (P08172 whole entry): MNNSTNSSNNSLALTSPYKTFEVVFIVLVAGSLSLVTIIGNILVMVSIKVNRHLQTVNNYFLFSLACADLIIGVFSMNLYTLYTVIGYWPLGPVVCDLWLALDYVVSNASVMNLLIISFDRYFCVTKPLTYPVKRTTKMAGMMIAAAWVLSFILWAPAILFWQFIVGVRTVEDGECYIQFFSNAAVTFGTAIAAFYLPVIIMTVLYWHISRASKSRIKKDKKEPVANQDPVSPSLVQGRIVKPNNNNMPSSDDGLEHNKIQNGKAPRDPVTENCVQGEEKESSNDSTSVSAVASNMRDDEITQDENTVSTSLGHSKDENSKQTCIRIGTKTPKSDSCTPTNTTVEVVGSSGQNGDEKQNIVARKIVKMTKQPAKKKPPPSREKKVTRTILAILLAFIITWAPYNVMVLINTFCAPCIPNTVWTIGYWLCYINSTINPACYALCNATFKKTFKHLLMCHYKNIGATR

[5] = tested on: bacterial mutagenicity (4-strain with and without S9); experiment: Bacterial mutagenicity mini-AMES assay; type: cell-based
CYP 3A5 = CYP 3A5 (Homo sapiens, UniProt P20815); experiment: CYP isoform contribution to metabolism: 3A5; type: in vitro ADME
[6] = molecular target: Nicotinic Acetylcholine α1, Bungarotoxin (Homo sapiens, UniProt P02708+P07510+Q07001); experiment: Eurofins radioligand binding; conditions: read-out: % Inhibition at 10 µM
[7] = molecular target: Transporter, Dopamine (DAT) (Homo sapiens, UniProt Q01959); experiment: Eurofins radioligand binding
GABAB1A = GABAB1A (Homo sapiens, UniProt Q9UBS5); experiment: Eurofins radioligand binding
Chain of GABAB1A (Q9UBS5 15-961 limits assumed): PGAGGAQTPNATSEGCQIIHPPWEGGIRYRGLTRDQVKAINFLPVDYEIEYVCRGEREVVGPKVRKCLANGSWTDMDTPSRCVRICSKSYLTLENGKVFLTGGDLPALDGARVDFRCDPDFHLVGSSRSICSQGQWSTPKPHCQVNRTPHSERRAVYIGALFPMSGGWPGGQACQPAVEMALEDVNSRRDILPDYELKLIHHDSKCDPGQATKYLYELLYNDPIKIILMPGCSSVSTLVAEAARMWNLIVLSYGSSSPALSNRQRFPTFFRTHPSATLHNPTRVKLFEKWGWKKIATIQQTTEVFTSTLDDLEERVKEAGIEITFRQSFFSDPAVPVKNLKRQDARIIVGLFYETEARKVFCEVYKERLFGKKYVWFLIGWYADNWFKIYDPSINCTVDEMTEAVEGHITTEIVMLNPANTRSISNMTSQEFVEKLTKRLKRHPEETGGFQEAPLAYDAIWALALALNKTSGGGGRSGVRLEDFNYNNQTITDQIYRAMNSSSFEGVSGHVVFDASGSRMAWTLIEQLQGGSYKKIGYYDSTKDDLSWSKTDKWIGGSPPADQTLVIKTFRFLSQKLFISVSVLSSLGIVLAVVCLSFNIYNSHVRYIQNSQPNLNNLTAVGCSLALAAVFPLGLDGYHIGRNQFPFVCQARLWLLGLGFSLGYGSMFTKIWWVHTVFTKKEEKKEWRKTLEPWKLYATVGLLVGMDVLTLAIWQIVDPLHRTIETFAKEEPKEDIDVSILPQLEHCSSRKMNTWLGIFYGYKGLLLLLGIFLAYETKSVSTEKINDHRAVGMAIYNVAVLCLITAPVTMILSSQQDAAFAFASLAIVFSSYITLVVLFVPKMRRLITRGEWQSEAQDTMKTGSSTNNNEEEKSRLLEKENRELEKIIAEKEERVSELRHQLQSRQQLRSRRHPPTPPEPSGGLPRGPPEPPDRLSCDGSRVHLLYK
Chain of GABAB1A (O75899 42-941 partner): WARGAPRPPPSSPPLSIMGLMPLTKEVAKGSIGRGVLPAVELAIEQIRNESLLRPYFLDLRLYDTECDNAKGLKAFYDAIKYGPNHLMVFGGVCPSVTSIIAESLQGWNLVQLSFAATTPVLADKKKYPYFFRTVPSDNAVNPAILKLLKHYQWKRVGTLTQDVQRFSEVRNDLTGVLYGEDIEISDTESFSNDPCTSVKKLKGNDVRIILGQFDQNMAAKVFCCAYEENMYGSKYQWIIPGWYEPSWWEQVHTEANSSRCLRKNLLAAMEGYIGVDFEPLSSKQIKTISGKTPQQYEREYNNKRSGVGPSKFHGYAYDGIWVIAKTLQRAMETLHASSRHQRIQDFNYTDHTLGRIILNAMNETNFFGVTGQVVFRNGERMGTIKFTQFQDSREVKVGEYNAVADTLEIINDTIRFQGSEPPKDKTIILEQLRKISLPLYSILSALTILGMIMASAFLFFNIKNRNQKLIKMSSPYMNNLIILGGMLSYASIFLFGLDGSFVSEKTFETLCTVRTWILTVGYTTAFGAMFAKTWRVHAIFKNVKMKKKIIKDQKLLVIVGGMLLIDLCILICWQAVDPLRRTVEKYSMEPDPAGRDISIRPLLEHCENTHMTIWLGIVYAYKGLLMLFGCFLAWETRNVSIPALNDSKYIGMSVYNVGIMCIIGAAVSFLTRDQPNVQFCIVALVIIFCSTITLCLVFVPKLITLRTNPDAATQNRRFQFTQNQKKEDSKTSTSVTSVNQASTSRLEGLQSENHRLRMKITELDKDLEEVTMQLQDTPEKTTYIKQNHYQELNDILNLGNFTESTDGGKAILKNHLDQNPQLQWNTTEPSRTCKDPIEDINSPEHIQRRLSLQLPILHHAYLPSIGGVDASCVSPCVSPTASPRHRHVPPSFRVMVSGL

Dopamine D1 = Dopamine D1 (Homo sapiens, UniProt P21728); experiment: Eurofins radioligand binding
Chain of Dopamine D1 (P21728 whole entry): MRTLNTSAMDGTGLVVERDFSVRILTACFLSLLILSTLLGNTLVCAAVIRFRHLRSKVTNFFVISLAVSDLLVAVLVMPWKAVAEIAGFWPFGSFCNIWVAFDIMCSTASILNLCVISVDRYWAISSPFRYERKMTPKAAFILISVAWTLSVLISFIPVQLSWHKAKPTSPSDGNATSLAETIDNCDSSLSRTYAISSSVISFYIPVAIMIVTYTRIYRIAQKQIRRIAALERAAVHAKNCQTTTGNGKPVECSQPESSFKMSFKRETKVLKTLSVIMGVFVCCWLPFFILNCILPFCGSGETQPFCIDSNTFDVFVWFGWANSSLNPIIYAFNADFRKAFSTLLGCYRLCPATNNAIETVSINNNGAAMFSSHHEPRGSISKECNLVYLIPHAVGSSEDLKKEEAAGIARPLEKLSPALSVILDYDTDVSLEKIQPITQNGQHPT

Purinergic P2X = experiment: Eurofins radioligand binding; design: species or system Rat
Bradykinin B2 = Bradykinin B2 (Homo sapiens, UniProt P30411); experiment: Eurofins radioligand binding
Opiate δ1 (OP1, DOP) = Opiate δ1 (OP1, DOP) (Homo sapiens, UniProt P41143); experiment: Eurofins radioligand binding
hERG potassium channel = hERG potassium channel (Homo sapiens, UniProt Q12809); experiment: Eurofins radioligand binding
[8] = Dog MTD with pharmacokinetics study; type: in vivo; conditions: for AUC / Cmax: dog MTD, plasma
Excerpt: (§1) To this end, we prepared a 200 g lot of PAM 5 and performed, in parallel, a dog maximum tolerated dose (MTD) with a pharmacokinetics study and a 14-day rat exploratory toxicology and toxicokinetic study, quantifying plasma Cmax and AUC for both parent 5 and metabolite 6. […] Moreover, while exposure increased with dose, it was nonlinear. […] The series was terminated based on (1) poor and less than dose-proportional increases in systemic exposure, (2) lack of a kinetic isotope effect to diminish production of 6 in dogs and rats, and (3) strong likelihood of even higher concentrations of 6 to be present in man.

[9] = Rat 14-day exploratory toxicology and toxicokinetic study; type: in vivo; conditions: rat 14-day study, plasma
Excerpt: as §1

Serotonin (5-HT1A) = Serotonin (5-HT1A) (Homo sapiens, UniProt P08908); experiment: Eurofins radioligand binding
Chain of Serotonin (5-HT1A) (P08908 whole entry): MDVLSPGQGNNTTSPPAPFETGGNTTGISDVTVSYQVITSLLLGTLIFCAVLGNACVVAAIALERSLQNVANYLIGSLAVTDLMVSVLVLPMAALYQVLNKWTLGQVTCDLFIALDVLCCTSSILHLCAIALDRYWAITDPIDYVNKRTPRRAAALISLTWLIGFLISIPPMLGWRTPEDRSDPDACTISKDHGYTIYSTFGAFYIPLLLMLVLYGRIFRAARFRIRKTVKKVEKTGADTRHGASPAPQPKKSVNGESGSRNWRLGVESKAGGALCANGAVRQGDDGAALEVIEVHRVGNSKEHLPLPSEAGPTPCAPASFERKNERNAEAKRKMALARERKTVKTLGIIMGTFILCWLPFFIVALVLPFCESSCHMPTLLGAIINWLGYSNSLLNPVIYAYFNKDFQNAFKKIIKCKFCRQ

Adrenergic β2 = Adrenergic β2 (Homo sapiens, UniProt P07550); experiment: Eurofins radioligand binding
Neuropeptide Y Y1 = Neuropeptide Y Y1 (Homo sapiens, UniProt P25929); experiment: Eurofins radioligand binding
Estrogen ERα = Estrogen ERα (Homo sapiens, UniProt P03372); experiment: Eurofins radioligand binding
Adrenergic α1D = Adrenergic α1D (Homo sapiens, UniProt P25100); experiment: Eurofins radioligand binding
Histamine H2 = Histamine H2 (Homo sapiens, UniProt P25021); experiment: Eurofins radioligand binding
Chain of Histamine H2 (P25021 whole entry): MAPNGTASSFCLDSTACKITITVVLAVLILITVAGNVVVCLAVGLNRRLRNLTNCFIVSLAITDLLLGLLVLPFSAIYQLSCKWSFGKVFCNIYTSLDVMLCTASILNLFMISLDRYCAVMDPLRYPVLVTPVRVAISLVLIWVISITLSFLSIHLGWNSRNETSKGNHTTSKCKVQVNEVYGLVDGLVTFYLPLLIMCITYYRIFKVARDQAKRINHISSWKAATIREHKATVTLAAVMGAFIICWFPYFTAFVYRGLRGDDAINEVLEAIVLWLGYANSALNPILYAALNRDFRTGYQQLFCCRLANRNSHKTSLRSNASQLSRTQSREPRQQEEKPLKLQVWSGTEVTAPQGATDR

CYP = CYP induction; type: in vitro ADME; conditions: in words
Transporter, GABA = Transporter, GABA (Rattus norvegicus, UniProt P23978); experiment: Eurofins radioligand binding

Cn1cc2c(-c3cc(F)c(CN4Cc5ncccc5C4=O)c(F)c3)cccc2n1 [compound 1]
rat CLhep [1]: 5.7 mL/min/kg

[2H]C1([2H])c2ncccc2C(=O)N1Cc1c(F)cc(-c2cccc3nn(C([2H])([2H])[2H])cc23)cc1F [compound 5]
% Inhibition at 10 µM (Phorbol Ester): 5% | IC50 [2]: 42.3 µM | inhibition at 10 µM (Glucocorticoid): 13% | inhibition at 10 µM (Endothelin ETB): 1% | inhibition at 10 µM [3]: -9% | activity in Eurofins lead profiling screen, whole panel [4]: no significant activity | inhibition at 10 µM (Dopamine D3): -1% | inhibition at 10 µM (Serotonin (5-HT3)): -9% | inhibition at 10 µM (Muscarinic M1): 0% | inhibition at 10 µM (Muscarinic M2): 5% | bacterial mutagenicity mini-AMES result [5]: negative | contribution of CYP 3A5 to metabolism (CYP 3A5): 5.8% | inhibition at 10 µM [6]: 8% | inhibition at 10 µM [7]: 32% | inhibition at 10 µM (GABAB1A): -5% | inhibition at 10 µM (Dopamine D1): -3% | % Inhibition at 10 µM (Purinergic P2X): 4% | inhibition at 10 µM (Bradykinin B2): 2% | inhibition at 10 µM (Opiate δ1 (OP1, DOP)): 1% | inhibition at 10 µM (hERG potassium channel): 9% | AUC ([8]; 30 mg/kg PO of 5): 34.9 µg·h/mL | Cmax ([8]; 30 mg/kg PO of 5): 2400 ng/mL | AUC ([8]; 300 mg/kg PO of 5): 68 µg·h/mL | Cmax ([8]; 300 mg/kg PO of 5): 3620 ng/mL | AUC ([8]; 1000 mg/kg PO of 5): 103 µg·h/mL | Cmax ([8]; 1000 mg/kg PO of 5): 5560 ng/mL | tolerability in dog MTD ([8]; dog, in vivo, po): well-tolerated | AUC at 14 days ([9]; day 14, 300 mg/kg PO of 5): 321 µg·h/mL | Cmax at 14 days ([9]; day 14, 300 mg/kg PO of 5): 22200 ng/mL | AUC at 14 days ([9]; day 14, 750 mg/kg PO of 5): 536 µg·h/mL | Cmax at 14 days ([9]; day 14, 750 mg/kg PO of 5): 31300 ng/mL | AUC at 14 day ([9]; day 14, 1500 mg/kg PO of 5): 518 µg·h/mL | Cmax at 14 days ([9]; day 14, 1500 mg/kg PO of 5): 30700 ng/mL | inhibition at 10 µM (Serotonin (5-HT1A)): -5% | inhibition at 10 µM (Adrenergic β2): -1% | inhibition at 10 µM (Neuropeptide Y Y1): -13% | inhibition at 10 µM (Estrogen ERα): 10% | inhibition at 10 µM (Adrenergic α1D): -15% | inhibition at 10 µM (Histamine H2): 2% | CYP induction liability (CYP): no time-dependent CYP inhibition or CYP induction liabilities | inhibition at 10 µM (Transporter, GABA): 31%
